For this experiment, the target named is Arabidopsis thaliana SHMT. The experiment is described as follows: SHMT activity assay (ED50 SHMT), coupled with N5,N10-CH2-THF dehydrogenase, NADH at 340 nm. The class given is biochemical. In outline:
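His-tagged SHMT purified on Ni-NTA. NADH formation followed at 340 nm for 30 min; ED50 from inhibition of initial velocity.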

[1] abbreviates: Table 2, values given as upper bounds.
Where [2] appears, read: inhibition of initial velocity of Arabidopsis thaliana SHMT.
Where [3] appears, read: Arabidopsis thaliana SHMT enzyme assay, values given as upper bounds.

By EC50 is commonly meant the concentration that produces a half-maximal response. High values mean weaker potency, low ones greater potency.

Bounds are passed on as bounds.

For the molecule `CCC1(c2ccc(O)c(C)c2)C(C#N)=C(N)Oc2[nH]nc(C)c21` (stereo not shown) [Compound 2.25.], the EC50 under setting [1] is < 1000 nM.

For the molecule `Cc1n[nH]c2c1C(c1cc(Cl)cc(CC(=O)O)c1)(C1(F)CC1)C(C#N)=C(N)O2` (stereo not shown) [Compound 2.498], the EC50 under setting [1] was < 100 nM.

In the case of `Cc1cccc(-c2ccc(C3(C4CCC4)C(C#N)=C(N)Oc4[nH]nc(C)c43)s2)c1` (stereo not shown) [Compound 4.29], the EC50 under setting [2] was < 10 nM.

Turning to `CCC1(CCC2CCCCC2)C(C#N)=C(N)Oc2[nH]nc(C)c21` (racemic) [Compound 4.65], the EC50 under setting [2] is < 1000 nM.

In the case of `Cc1n[nH]c2c1C(c1ccc(O)c(Cl)c1)(C1CCC1)C(C#N)=C(N)O2` (stereo not shown) [Compound 2.485], the EC50 under setting [1] is < 10 nM.

Take `CCc1n[nH]c2c1C(c1ccc(Cl)s1)(C1CC1)C(C#N)=C(N)O2` (stereo not shown) [Compound 4.78]: the EC50 under setting [2] is < 10000 nM.

Regarding `COc1ccc(C2(C3CCC3)C(C#N)=C(N)Oc3[nH]nc(C)c32)cc1C#N` (stereo not shown) [Compound 2.464], the EC50 under setting [1] is < 10 nM.

As to `Cc1n[nH]c2c1C(c1cc(C#N)cc(-c3ccc(Cl)c(C(=O)O)c3)c1)(C1CCC1)C(C#N)=C(N)O2` (stereo not shown) [Compound 2.556], the EC50 under setting [1] is < 10 nM.

With `Cc1n[nH]c2c1C(c1cc(Cl)c3c(c1)OCCO3)(C(C)C)C(C#N)=C(N)O2` (stereo not shown) [Compound 4.15], the EC50 under setting [2] was < 10 nM.

For the molecule `Cc1n[nH]c2c1C(c1cc(Br)cc(OCC(=O)O)c1)(C1CCC1)C(C#N)=C(N)O2` (stereo not shown) [Compound 2.507], the EC50 under setting [1] was < 10000 nM.

With `Cc1n[nH]c2c1C(c1cc(Cl)cc(Br)c1)(C1CCC1)C(C#N)=C(N)O2` (stereo not shown) [Compound 2.207.], the EC50 under setting [1] is < 10 nM.

For the molecule `Cc1n[nH]c2c1C(c1cc(Br)cc(Br)c1)(C(C)F)C(C#N)=C(N)O2` (stereo not shown) [Compound 2.685], the EC50 under setting [3] was < 10 nM.

For `Cc1n[nH]c2c1C(c1cc3c(C(F)(F)F)cccc3s1)(C1CCC1)C(C#N)=C(N)O2` (stereo not shown) [Compound 4.38], the EC50 under setting [2] was < 10 nM.

With `Cc1n[nH]c2c1C(c1cc(Br)cc(I)c1)(C1CCC1)C(C#N)=C(N)O2` (stereo not shown) [Compound 2.358], the EC50 (Table 2, Arabidopsis thaliana SHMT enzyme assay, values given as upper bounds) was < 10 nM.

On to `COc1cc(-c2cc(C#N)cc(C3(C4CCC4)C(C#N)=C(N)Oc4[nH]nc(C)c43)c2)ccc1C(=O)O` (stereo not shown) [Compound 2.561], for which the EC50 under setting [1] is < 10 nM.

Turning to `N#CC1=C(N)Oc2[nH]nc(C(F)F)c2C1(c1ccc(Cl)s1)C1CC1` (stereo not shown) [Compound 4.83], the EC50 under setting [2] is < 10000 nM.

`COc1ccc(C2(C(C)C)C(C#N)=C(N)Oc3[nH]nc(C)c32)cc1` (stereo not shown) [Compound 2.167.]: the EC50 under setting [1] was < 1000 nM.

As for `COC(=O)c1ccc(-c2cc(C#N)cc(C3(C4CCC4)C(C#N)=C(N)Oc4[nH]nc(C)c43)c2)cc1OC` (stereo not shown) [Compound 2.522], the 50% effective concentration (EC50) under setting [1] is < 10 nM.

As to `Cc1n[nH]c2c1C(CCC(F)(F)F)(c1cccc(C(F)(F)F)c1)C(C#N)=C(N)O2` (stereo not shown) [Compound 2.101.], the EC50 under setting [1] is < 10000 nM.

Regarding `Cc1n[nH]c2c1C(c1ccc(CCCc3nnn[nH]3)c(Cl)c1)(C1CCC1)C(C#N)=C(N)O2` (stereo not shown) [Compound 2.678], under setting [3], the EC50 was < 10 nM.

Consider `CCC1(c2ccc(OS(=O)(=O)Cc3ccccc3)c(C)c2)C(C#N)=C(N)Oc2[nH]nc(C)c21` (stereo not shown) [Compound 2.55.], for which the EC50 under setting [1] is < 1000 nM.

With `CCC1(CCc2ccccc2)C(C#N)=C(N)Oc2[nH]nc(C)c21` (stereo not shown) [Compound 4.76], under setting [2], the EC50 was < 1000 nM.

Consider `COC(=O)c1cccc(-c2cc(C#N)cc(C3(C4CCC4)C(C#N)=C(N)Oc4[nH]nc(C)c43)c2)c1` (stereo not shown) [Compound 2.453], for which the EC50 under setting [1] is < 10 nM.

With `N#CC1=C(N)Oc2[nH]ncc2C1(c1cc2ccccc2o1)C1CCC1` (stereo not shown) [Compound 4.54], the EC50 under setting [2] is < 100 nM.

As to `Cc1n[nH]c2c1C(c1cc3cc(C(F)(F)F)ccc3s1)(C1CCC1)C(C#N)=C(N)O2` (stereo not shown) [Compound 4.22], the half-maximal effective concentration (EC50) under setting [2] is < 10 nM.

As for `Cc1n[nH]c2c1C(c1cc(C#N)cc(CC(=O)O)c1)(C1CCC1)C(C#N)=C(N)O2` (stereo not shown) [Compound 2.627], under setting [1], the EC50 was < 100 nM.

On to `Cc1n[nH]c2c1C(c1cc(Cl)c(O)c(C#N)c1)(C1CCC1)C(C#N)=C(N)O2` (stereo not shown) [Compound 2.567], for which the EC50 under setting [1] is < 100 nM.

Consider `CCC1(c2cc(F)c(OC)c(F)c2)C(C#N)=C(N)Oc2[nH]nc(C)c21` (stereo not shown) [Compound 2.45.], for which the 50% effective concentration (EC50) under setting [1] is < 1000 nM.

The values above are taken from patent publication US9480259B2, “Pyrazolopyrans having herbicidal and pharmaceutical properties” (BASF SE, priority 2012, dated 2016).
